Where a name gives a salt, the structure may show the parent alone.
Tests used:
SB.msgc-1 = assay: AC50 for growth inhibition (viability) (log10 M); higher = less potent; details: SB.msgc-1 (sporadic gastric cancer)
Procedure, shortened: (§1)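 Gastric cancer cells derived from patients with hereditary or sporadic disease were seeded at 500 cells in 5 μL medium per 1536 well. A pintool delivered 23 nL of compound in DMSO, as 11 threefold dilutions from a final 46 μM. After 48 h, CellTiter-Glo was added for 30 min at room temperature and luminescence was read on a ViewLux. The log half-maximal activity concentration was taken from a four-parameter fit of viability normalised to DMSO, using only high-quality curve classes.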

SB.mhdgc-1 = assay: as above; details: SB.mhdgc-1 (hereditary c.1380delA CDH1 gastric cancer)
Procedure, shortened: as §1

Structure (SMILES)	AC50 for growth inhibition (log10 M) (SB.msgc-1)	AC50 for growth inhibition (log10 M) (SB.mhdgc-1)
CC(C)c1ccccc1Cc1cc(C(=O)Nc2ccc([S+](=O)([O-])c3ccccc3C(C)(C)C)cc2)c(O)c(O)c1O [TW-37]	-5.13	-4.83
C[C@H]1[C@@H](CC(C[C@H]2O[C@@H]3O[C@]4(C)CC[C@H]5[C@H](C)CC[C@@H]([C@H]2C)[C@@]35OO4)C[S+](=O)([O-])c2ccc(COC(=O)N(C)C)cc2)O[C@@H]2O[C@]3(C)CC[C@H]4[C@H](C)CC[C@@H]1[C@@]24OO3 [ASR-isobudimer-SO2Ph-4-CH2OC(O)NMe2]	-6.48	-6.93
C=CC(=O)Nc1cccc(Oc2nc(Nc3ccc(N4CCN(C)CC4)cc3OC)ncc2Cl)c1 [WZ-4002]	-7.78	-4.83
CC(C)c1cnn2c(NCc3ccccc3)cc(N[C@@H](CO)[C@H](O)CO)nc12 [BS-194]	-6.58	-6.73
CC(=O)N1CCN(c2ccc(OCc3nn(C)c(C)c3-c3cccc4c(CCCOc5cccc6ccccc56)c(C(=O)O)n(Cc5cccnc5)c34)cc2)CC1	-5.63	-5.63
CO[C@H]1CCC(O[C@H]2C[C@H]([C@]3(C)CC[C@]4(C[C@H](O)[C@@H](C)[C@@H]([C@@H](C)/C=C(\C)C(=O)[C@H](C)C[C@H](C)C(=O)[O][Na])O4)O3)O[C@]3(O[C@@H]([C@H]4O[C@@](O)(CO)[C@H](C)C[C@@H]4C)C[C@@H]3C)[C@@H]2C)O[C@@H]1C (stereo partly specified) [Nanchangmycin]	-6.68	-6.83
COC(=O)C\1=C(C)\N\C(=C(/C1C2=CC=CC3=NON=C23)C(=O)OC(C)C)C (stereo unspecified) [Isradipine]	-4.78	-5.38
CCN(CC)CCOC1=CC=C(NC2=NC=C3\C=C(/C(=O)N(C)C3=N2)C4=C(Cl)C=CC=C4Cl)C=C1	-5.98	-5.18
O=C(NC1CC1)c1cccc(-c2ccc3c(NC(=O)C4CC4)n[nH]c3c2)c1	-6.03	-5.93
CN(C)c1ccc(C(=O)NCCCCCCC(=O)NO)cc1 [M344]	-6.08	-5.83
CC(O)(C[S+](=O)([O-])c1ccc(F)cc1)C(=O)Nc1ccc(C#N)c(C(F)(F)F)c1 (stereo unspecified) [Bicalutamide]	-5.98	-6.43
CN(C1CCc2c(c3ccccc3n2CC(=O)O)C1)[S+](=O)([O-])c1ccc(F)cc1 (stereo unspecified)	-4.73	-5.03
CC(C)(C)NC(=O)[C@H]1CC[C@H]2[C@@H]3CC[C@H]4NC(=O)\C=C/[C@]4(C)[C@H]3CC[C@]12C [Finasteride]	-5.78	-6.23
COc1cccc2c1C(=O)c1c(O)c3c(c(O)c1C2=O)C[C@@](O)(C(=O)CO)C[C@@H]3O[C@H]1C[C@H](N)[C@H](O)[C@H](C)O1 [Doxorubicin]	-6.43	-7.33
NC(CSC(c1ccccc1)(c1ccccc1)c1ccccc1)C(=O)O (stereo in doubt) [S-Trityl-L-cysteine]	-5.03	-5.58
CCOC(=O)N1CCN(/[N+]([O-])=N/Oc2ccc([N+](=O)[O-])cc2[N+](=O)[O-])CC1	-4.88	-5.23
COc1ccc(CCC(=O)c2c(O)cc(O[C@@H]3O[C@H](CO)[C@@H](O)[C@H](O)[C@H]3O[C@@H]3O[C@@H](C)[C@H](O)[C@@H](O)[C@H]3O)cc2O)cc1O [Neohesperidin dihydrochalcone]	-5.18	-5.28
COc1cccc2c1C(=O)c1c(O)c3c(c(O)c1C2=O)C[C@@](O)(C(C)=O)C[C@@H]3O[C@H]1C[C@H](N)[C@H](O)[C@H](C)O1 [Daunorubicin]	-6.93	-7.28
N#CCNC(=O)c1ccc(-c2ccnc(Nc3ccc(N4CCOCC4)cc3)n2)cc1 [CYT387]	-4.73	-4.78
COc1cc(O)c2c(c1)C1OC1C[C@H](O)[C@H](O)C(=O)/C=C\C[C@H](C)OC2=O (stereo partly specified) [Hypothemycin]	-4.83	-5.03
OC[C@H]1O[C@H](C[C@@H]1O)N2\C=C(F)/C(=O)NC2=O [Floxuridine]	-6.48	-7.78
Cc1cc(OCCCc2c(C(=O)O)n(Cc3cccnc3)c3c(-c4c(COc5ccc(N6CCN([S+](C)(=O)[O-])CC6)cc5)nn(C)c4C)cccc23)cc(C)c1Cl	-4.63	-4.73
CC1=C(C)C2=C(S1)[N]3C(=NN=C3[C@H](CC(=O)OC(C)(C)C)/N=C2/C4=CC=C(Cl)C=C4)C [JQ1]	-5.38	-5.28
CC[C@@]1([C@@H]2O[C@@H]([C@H]3O[C@@](O)(CO)[C@H](C)C[C@@H]3C)C[C@@H]2C)CC[C@H]([C@]2(C)CC[C@]3(C[C@H](O)[C@@H](C)[C@@H]([C@@H](C)[C@@H](OC)[C@H](C)C(=O)[O-])O3)O2)O1 [Monensin sodium salt]	-6.94	-6.99

Structure (SMILES)	AC50 for growth inhibition (log10 M) (SB.msgc-1)	AC50 for growth inhibition (log10 M) (SB.mhdgc-1)
CCn1c(-c2nonc2N)nc2cnc(Oc3cccc(NC(=O)c4ccc(OCCN5CCOCC5)cc4)c3)cc21	-5.18	-4.98
CC(C)C(=O)Nc1ccc([N+](=O)[O-])c(C(F)(F)F)c1 [Flutamide]	-5.63	-5.83
COc1ccc2cc3[n+](cc2c1OC)CCc1cc2c(cc1-3)OCO2 [Berberine]	-5.18	-4.98
CCn1nnc2c(N3CCOCC3)nc(-c3ccc(NC(=O)Nc4ccc(C(=O)N5CCN(C)CC5)cc4)cc3)nc21 [PKI-402]	-5.88	-5.43
CC1=CC=C(C=C1)N(C\C2=N\CCN2)C3=CC=CC(=C3)O [Phentolamine mesilate]	-4.68	-4.98
COC1=CC=C(C=C1)C2CC(=N/N2C3=CC=C(C=C3)[S+](N)([O-])=O)\C4=CC=CC=C4 (stereo unspecified) [ML 141]	-4.73	-4.68
N=C(NCCCCCCNC(=N)NC(=N)Nc1ccc(Cl)cc1)NC(=N)Nc1ccc(Cl)cc1 [Chlorhexidine]	-5.43	-5.28
CN1CCC(CC1)COC2=CN=C(N=C2)C3=CC(=CC=C3)CN4/N=C(\C=C/C4=O)C5=CC(=CC=C5)C#N	-6.78	-7.48
OC1=CC=C(C=C1)\C2=C(O)\C(=O)C3=C(O2)C=C(O)C=C3O [Kaempferol]	-4.88	-4.93
CC(=O)C\1=C(/C)C2=CN=C(NC3=CC=C(C=N3)N4CCNCC4)N=C2N(C5CCCC5)C1=O	-4.73	-4.93
CC(C)CNc1ccnc(NCc2csc(-c3ccccc3)n2)n1 [KHS101]	-4.78	-4.78
N/C(=N\C(=O)c1nc(Cl)c(N)nc1N)NCc1ccccc1 [Benzamil]	-5.53	-5.73
CC(C)n1nc(-c2ccc3oc(N)nc3c2)c2c(N)ncnc21 [INK-128]	-5.48	-4.78
CC(C)(O)Cn1c(NC(=O)c2ccc(-c3cn[nH]c3)s2)nc2cc(CN3CCOCC3)ccc21	-5.63	-5.83
CCC[C@@H](C=O)NC(=O)[C@H](CC(C)C)NC(=O)[C@H](CC(C)C)NC(=O)OCc1ccccc1 [MG-115]	-5.88	-5.98
CCN(CC)CCCCNc1nc2cc(Cl)c(Cl)cc2nc1-c1ccc(-c2cccs2)s1	-4.68	-5.03
CC(C)(C)Cn1c(N)nc2ccc(-c3[nH]c(C(C)(C)C)nc3-c3ccc(F)cc3)nc21	-4.73	-4.53
COc1ncc(-c2ccc3nccc(-c4ccnnc4)c3c2)cc1N[S+](=O)([O-])c1ccc(F)cc1F	-5.93	-7.38
CCC1=C2C=C(OC(=O)N3CCC(CC3)N4CCCCC4)C=CC2=NC\5=C1CN6C(=O)\C7=C(/C=C56)[C@@](O)(CC)C(=O)OC7 [Irinotecan]	-6.73	-6.78
CNC(=O)c1cc(Oc2ccc(NC(=O)Nc3ccc(Cl)c(C(F)(F)F)c3)cc2)ccn1 [Sorafenib]	-4.98	-5.08
COCCn1c2c([n+](Cc3cnccn3)c1C)C(=O)c1ccccc1C2=O [Sepantronium bromide]	-7.73	-7.33
C=CC(=O)Nc1cccc(Oc2nc(Nc3ccc(N4CCN(C)CC4)cc3)ncc2Cl)c1 [WZ-3146]	-5.88	-5.18
CN(C)C(=O)[C@H](O)[C@H](Cc1ccccc1)NC(=O)c1cc2cc(Cl)ccc2[nH]1	-5.13	-5.23
CC(C)Oc1ccc(C(=O)N[C@H](CNC(=O)CN(C)C)Cc2ccc(-c3cn4cccc([C@H](C)O)c4n3)cc2)cc1Cl	-6.63	-5.18

— the supplement of paper PMC5412046
